Measured values published in US5891717A, “Methods and compositions for inhibiting hexokinase” (priority 1996, dated 1999).

Assays:
[1] = target: T1, HK-isletGK chimera: N-terminal 455 amino acids of rat hexokinase I fused to rat islet glucokinase, SEQ ID NO:12 (DNA SEQ ID NO:11) (Rattus norvegicus, UniProt P17712); assay: Glucose phosphorylating activity in extracts of transiently transfected 293 cells, with and without G6P; assay type: biochemical; conditions: 10 mM G6P, 20 mM glucose, 293 cell extracts
T1 construct: expressed in transfected cells; host or cells: human embryonic kidney 293 cells, crude extract
T1 sequence (P17712 with tags, fused parts or gaps): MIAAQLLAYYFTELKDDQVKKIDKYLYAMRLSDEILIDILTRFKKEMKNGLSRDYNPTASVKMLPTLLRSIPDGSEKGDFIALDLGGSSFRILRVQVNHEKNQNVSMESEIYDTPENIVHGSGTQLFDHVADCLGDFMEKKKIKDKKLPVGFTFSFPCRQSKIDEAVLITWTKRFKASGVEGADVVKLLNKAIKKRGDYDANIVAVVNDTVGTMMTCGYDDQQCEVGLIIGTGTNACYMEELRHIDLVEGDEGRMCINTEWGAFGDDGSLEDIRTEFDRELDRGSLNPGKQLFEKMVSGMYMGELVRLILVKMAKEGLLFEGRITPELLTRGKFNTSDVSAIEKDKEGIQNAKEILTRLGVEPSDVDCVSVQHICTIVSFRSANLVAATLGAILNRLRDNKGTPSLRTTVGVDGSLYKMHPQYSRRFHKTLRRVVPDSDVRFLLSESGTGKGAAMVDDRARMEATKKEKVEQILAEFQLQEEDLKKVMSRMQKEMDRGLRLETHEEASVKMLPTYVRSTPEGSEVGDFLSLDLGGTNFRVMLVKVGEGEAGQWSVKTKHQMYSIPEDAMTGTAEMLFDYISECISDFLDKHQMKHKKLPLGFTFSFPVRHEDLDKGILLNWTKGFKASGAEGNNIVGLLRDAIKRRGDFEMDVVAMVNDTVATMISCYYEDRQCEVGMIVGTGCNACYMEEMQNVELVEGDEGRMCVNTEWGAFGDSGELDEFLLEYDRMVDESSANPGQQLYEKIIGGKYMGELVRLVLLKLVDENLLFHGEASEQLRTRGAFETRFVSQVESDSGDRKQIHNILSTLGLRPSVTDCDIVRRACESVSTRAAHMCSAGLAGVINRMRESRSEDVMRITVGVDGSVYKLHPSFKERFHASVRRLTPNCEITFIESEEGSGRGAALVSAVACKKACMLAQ
From the text: (§1) For transient transfection studies, cDNAs encoding chimeric hexokinase/glucokinase proteins consisting of the N-terminal domain of hexokinase I (amino acids 1-455) linked in frame to either the full length liver isoform of glucokinase (HK-liverGK, SEQ ID NO:8) or the islet isoform of glucokinase (HK-isletGK, SEQ ID NO:11) were cloned into pAC.CMVpLpA.
(§2) Plasmids containing DNA encoding either intact islet glucokinase, hexokinase I or one of the two hexokinase/glucokinase chimeras were introduced into the human embryonic kidney cell line 293, using Ca2 PO4 co-precipitation. After incubation with the plasmid DNA, cells were cultured for an additional 48 hours. Cells were harvested and crude extracts prepared for assay of glucose phosphorylating activity, using a radioisotopic assay that monitors conversion of U-^14 C glucose to U^14 C glucose-6-phosphate.
(§3) Assays were performed at 3 and 20 mM glucose. At the lower glucose concentration, hexokinase activity is maximal while glucokinase activity is very low. […] The assay was also performed in the presence and absence of 10 mM unlabeled glucose-6-phosphate (G6P).

[2] = target: T2, HK-liverGK chimera: N-terminal 455 amino acids of rat hexokinase I fused to rat liver glucokinase, SEQ ID NO:9 (DNA SEQ ID NO:8) (Rattus norvegicus, UniProt P17712); assay: as above; assay type: biochemical; conditions: 10 mM G6P, 20 mM glucose, 293 cell extracts
T2 construct: expressed in transfected cells; host or cells: human embryonic kidney 293 cells, crude extract
T2 sequence (P17712 with tags, fused parts or gaps isoform P17712-3): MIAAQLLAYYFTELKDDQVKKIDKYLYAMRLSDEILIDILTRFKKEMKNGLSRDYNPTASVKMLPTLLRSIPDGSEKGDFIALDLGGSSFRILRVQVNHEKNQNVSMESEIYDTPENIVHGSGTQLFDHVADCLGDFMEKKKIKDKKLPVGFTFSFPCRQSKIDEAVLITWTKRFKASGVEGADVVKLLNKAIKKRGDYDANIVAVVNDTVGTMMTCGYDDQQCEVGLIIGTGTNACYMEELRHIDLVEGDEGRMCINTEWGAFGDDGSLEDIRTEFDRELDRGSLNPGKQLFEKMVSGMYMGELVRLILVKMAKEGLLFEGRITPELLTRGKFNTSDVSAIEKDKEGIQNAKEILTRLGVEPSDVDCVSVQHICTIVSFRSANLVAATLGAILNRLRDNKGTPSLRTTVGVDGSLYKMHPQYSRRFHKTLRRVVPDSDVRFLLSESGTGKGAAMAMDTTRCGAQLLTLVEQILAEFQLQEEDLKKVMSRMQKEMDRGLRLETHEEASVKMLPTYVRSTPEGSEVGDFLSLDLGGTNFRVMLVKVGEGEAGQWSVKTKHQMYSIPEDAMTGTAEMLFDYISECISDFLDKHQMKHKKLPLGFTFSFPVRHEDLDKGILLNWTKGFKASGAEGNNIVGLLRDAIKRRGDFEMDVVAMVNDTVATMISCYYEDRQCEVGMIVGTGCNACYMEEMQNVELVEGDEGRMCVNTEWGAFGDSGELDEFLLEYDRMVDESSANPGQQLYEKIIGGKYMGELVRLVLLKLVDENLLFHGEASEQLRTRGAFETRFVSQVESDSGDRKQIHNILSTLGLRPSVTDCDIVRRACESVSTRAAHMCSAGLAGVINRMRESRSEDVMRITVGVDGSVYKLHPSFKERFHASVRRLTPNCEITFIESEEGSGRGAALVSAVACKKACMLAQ
From the text: as §1, §2, §3

[3] = target: T3, native (wild type) islet glucokinase, overexpressed (Rattus norvegicus, UniProt P17712); assay: as above; assay type: biochemical; conditions: 10 mM G6P, 293 cell extracts
T3 construct: Plasmids containing DNA encoding either intact islet glucokinase, hexokinase I; expressed in transfected cells; host or cells: human embryonic kidney 293 cells, crude extract
T3 sequence (P17712 1-465): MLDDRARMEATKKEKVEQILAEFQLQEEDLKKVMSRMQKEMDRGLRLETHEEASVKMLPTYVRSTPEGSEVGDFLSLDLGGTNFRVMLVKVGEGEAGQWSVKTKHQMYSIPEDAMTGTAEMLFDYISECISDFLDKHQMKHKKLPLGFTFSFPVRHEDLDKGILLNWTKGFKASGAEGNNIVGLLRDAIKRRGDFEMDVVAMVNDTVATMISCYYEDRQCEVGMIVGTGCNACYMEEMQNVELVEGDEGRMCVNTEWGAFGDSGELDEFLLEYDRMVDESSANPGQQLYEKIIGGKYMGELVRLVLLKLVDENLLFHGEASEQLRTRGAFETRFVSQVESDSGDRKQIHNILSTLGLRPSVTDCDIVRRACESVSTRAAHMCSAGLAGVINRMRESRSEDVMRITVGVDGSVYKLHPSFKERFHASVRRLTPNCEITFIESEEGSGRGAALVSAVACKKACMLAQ
Protocol: as §2, with “glucose-6-phosphate. The extract buffer and assay procedure have previously been described in detail (Kuwajima, et al., 1986; Becker, et al., 1994; each incorporated herein by reference).” for “glucose-6-phosphate.”
Assays were performed at 3 and 20 mM glucose. At the lower glucose concentration, hexokinase activity is maximal while glucokinase activity is very low. At the higher concentration, glucokinase activity is increased to near maximal. The assay was also performed in the presence and absence of 10 mM unlabeled glucose-6-phosphate (G6P). In the presence of G6P, low Km hexokinases are inhibited, but glucokinase is not.

[4] = target: glucokinase (GK, hexokinase IV); conditions: cited from earlier work
[5] = target: low Km hexokinases I, II and III (HKI-III); conditions: cited from earlier work
[6] = target: T4, native hexokinase I, overexpressed (Rattus norvegicus, UniProt P05708); conditions: typically seen (Becker et al., 1994; 1996); cited from earlier work
T4 sequence (P05708 1-918): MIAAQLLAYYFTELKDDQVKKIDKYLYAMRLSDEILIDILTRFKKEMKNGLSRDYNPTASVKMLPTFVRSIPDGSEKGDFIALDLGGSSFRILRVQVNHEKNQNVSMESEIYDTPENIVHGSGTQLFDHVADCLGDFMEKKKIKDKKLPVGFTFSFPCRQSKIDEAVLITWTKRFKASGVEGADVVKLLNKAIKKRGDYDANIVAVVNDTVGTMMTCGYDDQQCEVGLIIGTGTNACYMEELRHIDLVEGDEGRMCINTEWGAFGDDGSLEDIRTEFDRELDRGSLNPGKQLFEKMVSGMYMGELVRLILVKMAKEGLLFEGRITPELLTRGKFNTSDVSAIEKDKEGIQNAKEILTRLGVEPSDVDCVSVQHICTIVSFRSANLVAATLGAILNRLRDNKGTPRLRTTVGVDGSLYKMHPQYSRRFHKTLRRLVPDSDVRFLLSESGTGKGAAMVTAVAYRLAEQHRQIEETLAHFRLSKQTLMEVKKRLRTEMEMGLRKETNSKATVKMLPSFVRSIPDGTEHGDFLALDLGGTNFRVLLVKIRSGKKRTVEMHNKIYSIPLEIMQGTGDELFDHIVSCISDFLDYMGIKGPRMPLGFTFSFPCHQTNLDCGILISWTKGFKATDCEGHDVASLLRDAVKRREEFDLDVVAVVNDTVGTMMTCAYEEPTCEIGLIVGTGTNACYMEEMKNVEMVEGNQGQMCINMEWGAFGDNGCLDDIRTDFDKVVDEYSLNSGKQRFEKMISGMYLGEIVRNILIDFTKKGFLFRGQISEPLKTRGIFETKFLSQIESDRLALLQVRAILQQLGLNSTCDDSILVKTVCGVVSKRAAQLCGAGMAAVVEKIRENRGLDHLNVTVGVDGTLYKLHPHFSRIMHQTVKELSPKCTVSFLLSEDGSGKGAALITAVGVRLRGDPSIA

[7] = running text (Wilson, 1985), read-out: Km for glucose

Row | inhibition of glucose phosphorylating activity by G6P [1] | inhibition of glucose phosphorylating activity by G6P [2] | effect of glucose-6-phosphate on glucose phosphorylating activity [3] | Structure (SMILES) | Ki ([4]; Table 1, GK, read-out: Ki G-6-P) [mM] | glucose-6-phosphate concentration required for appreciable inhibition [4] [mM] | Ki ([5]; Table 1, HKI-III, read-out: Ki G-6-P) [mM] | inhibition of glucose phosphorylating activity by G6P [6] [%] | Km [4, 7] [mM] | Km [5, 7] [mM]
1 | approximately 40% | approximately 20% | no significant effect | O=P(O)(O)OC[C@H]1OC(O)[C@H](O)[C@@H](O)[C@@H]1O (stereo partly drawn) [glucose-6-phosphate] | 60 | > 10 | 0.2 to 0.9 | 90 | – | –
2 | – | – | – | OC[C@H]1OC(O)[C@H](O)[C@@H](O)[C@@H]1O (stereo partly drawn) [glucose] | – | – | – | – | 6 to 8 | 0.01 to 0.05
